Data on four molecules can be found in patent US8389011B2, “Pharmaceutical compositions of cholesteryl ester transfer protein inhibitors” (Bend Research, Inc., priority 2000, dated 2013).

What is called solubility is the dissolved amount per volume that the medium holds.

Where only a bound is given, the exact number is not on record here.

The data set in a line: Solubility in water. It is filed as physicochemical. The note with it: aqueous solubility determined at about 22° C. unless otherwise specified, read-out: solubility in water. The source says: The invention is useful for CETP inhibitors which have sufficiently low aqueous solubility, low bioavailability or slow rate of absorption such that it is desirable to increase their concentration in an aqueous environment of use. Therefore, anytime one finds it desirable to raise the aqueous concentration of the CETP inhibitor in a use environment, the invention will find utility.
With `CCOC(=O)N1c2cc3c(cc2[C@@H](N(Cc2cc(C(F)(F)F)cc(C(F)(F)F)c2)C(=O)OC)C[C@H]1C)CCC3` [Drug 6, [2R,4S]4-[(3,5-bis-trifluoromethyl-benzyl)-methoxycarbonyl-amino]-2-methyl-2,3,4,6,7,8-hexahydro-cyclopenta[g]quinoline-1-carboxylic acid ethyl ester], the solubility is under 1 µg/mL. For `CCCOC(=O)N1c2ccc(C(F)(F)F)cc2[C@@H](N(Cc2cc(C(F)(F)F)cc(C(F)(F)F)c2)C(=O)OC)C[C@H]1CC` [Drug 3, [2R,4S]4-[(3,5-bis-trifluoromethyl-benzyl)-methoxycarbonyl-amino]-2-ethyl-6-trifluoromethyl-3,4-dihydro-2H-quinoline-1-carboxylic acid propyl ester] the value was under 0.1 µg/mL; for `CCc1cc(Oc2cccc(N(Cc3cccc(OC(F)(F)C(F)F)c3)C[C@@H](O)C(F)(F)F)c2)ccc1Cl` [Drug 11, (2R)-3-[[3-(4-chloro-3-ethylphenoxy)phenyl][[3-(1,1,2,2-tetrafluoroethoxy)phenyl]methyl]amino]-1,1,1-trifluoro-2-propanol], under 1 µg/mL.

Consider `COC(=O)N(Cc1cc(C(F)(F)F)cc(C(F)(F)F)c1)[C@H]1C[C@@H](C2CC2)N(C(=O)OC(C)C)c2ccc(C(F)(F)F)cc21` [Drug 8, [2S,4S]4-[(3,5-bis-trifluoromethyl-benzyl)-methoxycarbonyl-amino]-2-cyclopropyl-6-trifluoromethyl-3,4-dihydro-2H-quinoline-1-carboxylic acid isopropyl ester], for which the solubility was under 1 µg/mL.
